Experimental data reported in publication PMC11062899, “De novo development of small cyclic peptides that are orally bioavailable” (Nature Chemical Biology, 2023).
Several values for one entry are separate records, joined by “and”; a condition that tells them apart may be missing. Identical values can stand only once. Like-named read-outs stand apart in the source and are kept apart here.

Tests used:
human α-thrombin = human α-thrombin (Homo sapiens, UniProt P00734); test: Protease inhibition, Ki for human α-thrombin (fluorogenic substrate Z-Gly-Gly-Arg-AMC); assay type: biochemical; conditions: for slope normalized to DMSO, human alpha thrombin inhibition / Human alpha thrombin inhibition, slope normalized to DMSO: replicates R1-R3
In short: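 Inhibition was measured as AMC fluorescence from 50 μM substrate, monitored for 30 min at 25 °C, relative to a peptide-free control. Human and rat enzymes were present at 2 nM and 3 nM final, respectively, in 50 mM Tris-HCl pH 7.4, 150 mM NaCl, 10 mM MgCl2, 1 mM CaCl2. Ki derives from fitted IC50 via Cheng–Prusoff.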

[1] = Passive artificial membrane permeability (PAMPA);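 on Permeability% Average: top well sample relative to theoretical equilibrium sample by TIC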
in vivo = conditions: rat
Description: Male Wistar Han rats (250–350 g) obtained at an age of 9–10 weeks from Charles River Laboratories were used for the studies and kept in housing groups of two or three. Experiments were performed at the age of 10–11 weeks. Intravenous (i.v.) administrations were carried out using tail vein injections. Peptides were dissolved in pure DMSO and diluted with 5% Cremophor EL in water (5% DMSO final) at a concentration of 0.5 mg ml^−1. I.v. administration was carried out at a dose of 1 mg kg^−1 body weight via the left lateral tail vein of rats (n = 3) using an Insyte-W 24 G × 0.75 in. (0.7 mm × 19 mm) temporary peripheral venous catheter (BD Biosciences, 381312). Before injecting the peptide solution, a correct placement of the catheter was confirmed by an apparent reflux of blood through the catheter. Orally (p.o.) administrated peptides were dissolved in DMSO and diluted with 10% Cremophor EL in water (5% DMSO final) at a concentration of 1 mg ml^−1 and administrated by oral gavage to rats (n = 3) at a dose of 10 mg kg^−1. Rats used for oral administration were fasted overnight for 14 h and provided access to food again 2 h after administration, whereas access to water was not restricted throughout the whole experimental procedure. Volumes of 100 μl of blood samples were collected via the right lateral tail vein at different timepoints after i.v. or p.o. administration into heparinized tubes (Sarstedt, 20.1282); the samples were stored on ice for up to 4 h; and plasma was obtained by centrifugation at 2,000g for 5 min at 4 °C. A volume of 40 μl of plasma was added to 120 μl of an acetonitrile:water (9:1) solution containing an internal standard (5 μg ml^−1). Samples were vortexed for 10 s and sonicated for 10 min, and precipitated plasma proteins were pelleted by centrifugation at 16,000g for 15 min at 4 °C. Volumes of 120 μl of supernatant were transferred to a new tube, and solvent was evaporated in a rotary vacuum concentrator (RVC 2–33 CDplus IR, Christ) for 2 h at 40 °C. Dried residues were dissolved in 20 μl of a water:acetonitrile (7:3) (v/v) solution, centrifuged at 14,000g for 5 min and analyzed by LC–MS. Peptides were quantified by extracting ion chromatograms corresponding to their respective mass, integrating the area under the peptide peak and calculating the concentrations by normalization to a calibration curve. Calibration curves were prepared by analyzing spiked samples of blood or plasma with known concentrations of peptide. The absolute oral bioavailability was calculated using equation (6).6 F=AUCp.o./AUCi.v.×Dosei.v./Dosep.o.×100 where AUCp.o. and AUCi.v. are calculated from a plasma concentration versus time curve using the linear trapezoidal rule, and Dosei.v. and Dosep.o. are the intravenously or orally administrated amount of peptide in mg kg^−1.

[2] = male, Wistar Han, iv, 1 mg/kg, Plasma Concentration (uM)

O=C1C[C@H]2CCCN2C(=O)[C@H](Cc2ccccc2)NC(=O)[C@@H](NC(=O)c2ccc(Cl)s2)CCC=CCCCCN1 [peptide 43]
slope normalized to DMSO, human alpha thrombin inhibition (human α-thrombin; peptide 1.00E+02 uM): 10.6 and 8.4 (2×)
slope normalized to DMSO, human alpha thrombin inhibition (human α-thrombin; peptide 1.19E-05 uM): 106.5 and 81.0 and 107.9
slope normalized to DMSO, human alpha thrombin inhibition (human α-thrombin; peptide 1.22E-02 uM): 62.0 and 85.6 and 70.0
slope normalized to DMSO, human alpha thrombin inhibition (human α-thrombin; peptide 1.25E+01 uM): 12.3 and 9.9 and 11.8
slope normalized to DMSO, human alpha thrombin inhibition (human α-thrombin; peptide 1.53E-03 uM): 95.1 and 99.7 and 102.7
slope normalized to DMSO, human alpha thrombin inhibition (human α-thrombin; peptide 1.56E+00 uM): 18.3 and 16.9 and 22.5
slope normalized to DMSO, human alpha thrombin inhibition (human α-thrombin; peptide 1.91E-04 uM): 119.9 and 101.0 and 100.8
slope normalized to DMSO, human alpha thrombin inhibition (human α-thrombin; peptide 1.95E-01 uM): 42.7 and 40.6 and 41.3
slope normalized to DMSO, human alpha thrombin inhibition (human α-thrombin; peptide 2.38E-05 uM): 106.9 and 97.9 and 102.5
slope normalized to DMSO, human alpha thrombin inhibition (human α-thrombin; peptide 2.44E-02 uM): 46.0 and 65.3 and 70.3
slope normalized to DMSO, human alpha thrombin inhibition (human α-thrombin; peptide 2.50E+01 uM): 11.7 and 11.0 and 8.9
slope normalized to DMSO, human alpha thrombin inhibition (human α-thrombin; peptide 3.05E-03 uM): 106.1 and 101.5 and 67.8
slope normalized to DMSO, human alpha thrombin inhibition (human α-thrombin; peptide 3.12E+00 uM): 3.8 and 18.2 and 18.8
slope normalized to DMSO, human alpha thrombin inhibition (human α-thrombin; peptide 3.81E-04 uM): 102.1 and 100.1 and 93.5
slope normalized to DMSO, human alpha thrombin inhibition (human α-thrombin; peptide 3.91E-01 uM): 14.9 and 22.0 and 10.5
slope normalized to DMSO, human alpha thrombin inhibition (human α-thrombin; peptide 4.77E-05 uM): 101.9 and 97.6 and 92.9
slope normalized to DMSO, human alpha thrombin inhibition (human α-thrombin; peptide 4.88E-02 uM): 73.8 and 55.8 and 60.0
slope normalized to DMSO, human alpha thrombin inhibition (human α-thrombin; peptide 5.00E+01 uM): 9.3 and 5.3
slope normalized to DMSO, human alpha thrombin inhibition (human α-thrombin; peptide 6.10E-03 uM): 98.4 and 93.3 and 99.0
slope normalized to DMSO, human alpha thrombin inhibition (human α-thrombin; peptide 6.25E+00 uM): 13.3 and 15.1 and 10.3
slope normalized to DMSO, human alpha thrombin inhibition (human α-thrombin; peptide 7.63E-04 uM): 80.8 and 91.3 and 104.9
slope normalized to DMSO, human alpha thrombin inhibition (human α-thrombin; peptide 7.81E-01 uM): 21.2 and 22.0 (2×)
slope normalized to DMSO, human alpha thrombin inhibition (human α-thrombin; peptide 9.54E-05 uM): 101.3 and 101.9 and 107.5
slope normalized to DMSO, human alpha thrombin inhibition (human α-thrombin; peptide 9.77E-02 uM): 65.8 and 56.8 and 59.4
Human alpha thrombin inhibition, slope normalized to DMSO (human α-thrombin; peptide concentration 1.00E+02 uM): 10.6 and 8.4 (2×)
Human alpha thrombin inhibition, slope normalized to DMSO (human α-thrombin; peptide concentration 1.19E-05 uM): 106.5 and 81.0 and 107.9
Human alpha thrombin inhibition, slope normalized to DMSO (human α-thrombin; peptide concentration 1.22E-02 uM): 62.0 and 85.6 and 70.0
Human alpha thrombin inhibition, slope normalized to DMSO (human α-thrombin; peptide concentration 1.25E+01 uM): 12.3 and 9.9 and 11.8
Human alpha thrombin inhibition, slope normalized to DMSO (human α-thrombin; peptide concentration 1.53E-03 uM): 95.1 and 99.7 and 102.7
Human alpha thrombin inhibition, slope normalized to DMSO (human α-thrombin; peptide concentration 1.56E+00 uM): 18.3 and 16.9 and 22.5
Human alpha thrombin inhibition, slope normalized to DMSO (human α-thrombin; peptide concentration 1.91E-04 uM): 119.9 and 101.0 and 100.8
Human alpha thrombin inhibition, slope normalized to DMSO (human α-thrombin; peptide concentration 1.95E-01 uM): 42.7 and 40.6 and 41.3
Human alpha thrombin inhibition, slope normalized to DMSO (human α-thrombin; peptide concentration 2.38E-05 uM): 106.9 and 97.9 and 102.5
Human alpha thrombin inhibition, slope normalized to DMSO (human α-thrombin; peptide concentration 2.44E-02 uM): 46.0 and 65.3 and 70.3
Human alpha thrombin inhibition, slope normalized to DMSO (human α-thrombin; peptide concentration 2.50E+01 uM): 11.7 and 11.0 and 8.9
Human alpha thrombin inhibition, slope normalized to DMSO (human α-thrombin; peptide concentration 3.05E-03 uM): 106.1 and 101.5 and 67.8
Human alpha thrombin inhibition, slope normalized to DMSO (human α-thrombin; peptide concentration 3.12E+00 uM): 3.8 and 18.2 and 18.8
Human alpha thrombin inhibition, slope normalized to DMSO (human α-thrombin; peptide concentration 3.81E-04 uM): 102.1 and 100.1 and 93.5
Human alpha thrombin inhibition, slope normalized to DMSO (human α-thrombin; peptide concentration 3.91E-01 uM): 14.9 and 22.0 and 10.5
Human alpha thrombin inhibition, slope normalized to DMSO (human α-thrombin; peptide concentration 4.77E-05 uM): 101.9 and 97.6 and 92.9
Human alpha thrombin inhibition, slope normalized to DMSO (human α-thrombin; peptide concentration 4.88E-02 uM): 73.8 and 55.8 and 60.0
Human alpha thrombin inhibition, slope normalized to DMSO (human α-thrombin; peptide concentration 5.00E+01 uM): 9.3 and 5.3
Human alpha thrombin inhibition, slope normalized to DMSO (human α-thrombin; peptide concentration 6.10E-03 uM): 98.4 and 93.3 and 99.0
Human alpha thrombin inhibition, slope normalized to DMSO (human α-thrombin; peptide concentration 6.25E+00 uM): 13.3 and 15.1 and 10.3
Human alpha thrombin inhibition, slope normalized to DMSO (human α-thrombin; peptide concentration 7.63E-04 uM): 80.8 and 91.3 and 104.9
Human alpha thrombin inhibition, slope normalized to DMSO (human α-thrombin; peptide concentration 7.81E-01 uM): 21.2 and 22.0 (2×)
Human alpha thrombin inhibition, slope normalized to DMSO (human α-thrombin; peptide concentration 9.54E-05 uM): 101.3 and 101.9 and 107.5
Human alpha thrombin inhibition, slope normalized to DMSO (human α-thrombin; peptide concentration 9.77E-02 uM): 65.8 and 56.8 and 59.4
Ki (human α-thrombin; purified peptide, mean and s.d. of three measurements, read-out: Ki human α-thrombin): 0.05 ± 0.006 µM
IC50 (human α-thrombin; single replicates R1-R3, read-out: Human alpha thrombin inhibition, IC50): 0.0564 µM and 0.0747 µM and 0.0635 µM
Ki (human α-thrombin; single replicates R1-R3, read-out: Human alpha thrombin inhibition, Ki): 0.0435 µM and 0.0576 µM and 0.0489 µM
PAMPA permeability: % permeability ([1]; 50 μM, 12–18 h, acceptor concentration relative to equilibrium): 66 ± 19%
Permeability% (single replicates R1–R3) ([1]; 50 μM, 12 h (Fig. 6d)): 52.91% and 57.15% and 54.20%
Permeability% Average ([1]; 50 μM, 12 h (Fig. 6d)): 54.8%
Permeability% (single replicates R1–R3) ([1]; 50 μM, 13 h (Fig. 5d)): 79.02% and 44.84% and 74.28%
Permeability% Average ([1]; 50 μM, 13 h (Fig. 5d)): 66.0%
Papp at 50 μM ([1]; PAMPA, pH 7.4): 97.7 nm/s
level at time molar at 0.08 h (in vivo; [2]): 3.19 µM
level at time molar at 0.25 h (in vivo; [2]): 1.63 µM
level at time molar at 2 h (in vivo; [2]): 0.29 µM
Tmax (in vivo; male, Wistar Han, po): 30 min
bioavailability (in vivo; po): 4.5 ± 2.5%
Cmax (in vivo; po, 10 mg/kg): 0.183 ± 0.096 µM
